Measurements reported in US8637518B2, “Pyridazinone derivatives” (MERCK PATENT GmbH, priority 2008, dated 2014).

Key:
Met kinase = biological target: T1, Met kinase (Homo sapiens, UniProt P08581); assay: Met kinase inhibition, enzyme assay (flashplate method); format: biochemical
T1 construct: 6His (N); purchased Upstate 14-526; host or cells: Sf21 insect cells (S. frugiperda), baculovirus
From the text: According to the manufacturer's data (Met, active, upstate, catalogue No. 14-526), Met kinase is expressed for the purposes of protein production in insect cells (Sf21; S. frugiperda) and subsequent affinity-chromatographic purification as “N-terminal 6His-tagged” recombinant human protein in a baculovirus expression vector.
The test plates used are 96-well Flashplate® microtitre plates from Perkin Elmer (Cat. No. SMP200). The components of the kinase reaction described below are pipetted into the assay plate. The Met kinase and the substrate poly Ala-Glu-Lys-Tyr, (pAGLT, 6:2:5:1), are incubated for 3 hrs at room temperature with radioactively labelled ^33P-ATP in the presence and absence of test substances in a total volume of 100 μl. The reaction is terminated using 150 μl of a 60 mM EDTA solution. After incubation for a further 30 min at room temperature, the supernatants are filtered off with suction, and the wells are washed three times with 200 μl of 0.9% NaCl solution each time. The measurement of the bound radioactivity is carried out by means of a scintillation measuring instrument (Topcount NXT, Perkin-Elmer).
The full value used is the inhibitor-free kinase reaction. This should be approximately in the range 6000-9000 cpm. The pharmacological zero value used is staurosporin in a final concentration of […]. The inhibitory values ([…]) are determined using the RS1_MTS program.
Kinase reaction conditions per well:
• 30 μl of assay buffer • 10 μl of substance to be tested in assay buffer with 10% of DMSO • 10 μl of ATP (final concentration 1 μM cold, 0.35 μCi of ^33P-ATP) • 50 μl of Met kinase/substrate mixture in assay buffer; • (10 ng of enzyme/well, 50 ng of pAGLT/well)
Solutions used: • Assay buffer:
50 mM HEPES • 3 mM magnesium chloride • 3 μM sodium orthovanadate • 3 mM manganese(II) chloride • 1 mM dithiothreitol (DTT)
pH=7.5 (to be set using sodium hydroxide) • Stop solution:
60 mM Titriplex III (EDTA) • ^33P-ATP: Perkin-Elmer; • Met kinase: Upstate, Cat. No. 14-526, Stock 1 μg/10 μl; spec. activity 954 U/mg; • Poly-Ala-Glu-Lys-Tyr, 6:2:5:1: Sigma Cat. No. P1152 In-vivo tests

TPR-Met/NIH3T3 cells = assay: In-vivo tests: tumour volume in mice injected subcutaneously with TPR-Met/NIH3T3 cells; conditions: female Balb/C mice, subcutaneous TPR-Met/NIH3T3 tumours, 200 mg/kg daily by gastric tube, 9 days
Experimental: Experimental procedure: Female Balb/C mice (breeder: Charles River Wiga) were 5 weeks old on arrival. They were acclimatised to our keeping conditions for 7 days. Each mouse was subsequently injected subcutaneously in the pelvic area with 4 million TPR-Met/NIH3T3 cells in 100 μl of PBS (without Ca++ and Mg++). […] 100 μl of vehicle (0.25% methylcellulose/100 mM acetate buffer, pH 5.5) were administered daily to the control group, and 200 mg/kg of “A56” or “A91” dissolved in the vehicle (volume likewise 100 μl/animal) were administered daily to the treatment groups, in each case by gastric tube.
Measurement of the tumour volume: The length (L) and breadth (B) were measured using a Vernier calliper, and the tumour volume was calculated from the formula L×B×B/2.
Keeping conditions: 4 or 5 animals per cage, feeding with commercial mouse food (Sniff).

T1 sequence (P08581 974-1390 limits assumed): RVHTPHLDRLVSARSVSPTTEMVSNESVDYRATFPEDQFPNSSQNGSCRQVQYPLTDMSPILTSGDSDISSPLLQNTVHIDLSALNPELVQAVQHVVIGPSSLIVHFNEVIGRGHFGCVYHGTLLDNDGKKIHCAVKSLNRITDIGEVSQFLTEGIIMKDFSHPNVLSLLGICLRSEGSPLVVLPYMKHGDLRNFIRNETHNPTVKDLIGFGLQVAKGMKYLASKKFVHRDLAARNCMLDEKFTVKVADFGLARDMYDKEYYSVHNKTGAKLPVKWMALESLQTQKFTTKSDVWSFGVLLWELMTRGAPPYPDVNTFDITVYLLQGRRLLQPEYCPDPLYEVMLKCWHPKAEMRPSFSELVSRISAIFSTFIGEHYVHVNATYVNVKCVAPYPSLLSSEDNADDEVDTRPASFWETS

IC50 (Met kinase)	melting point	Compound	antitumoural action (TPR-Met/NIH3T3 cells)
–	242 to 243 °C	CNC(=O)COc1cnc(-c2cccc(Cn3nc(-c4cnn(C)c4)ccc3=O)c2)nc1 [Compound A27, N-Methyl-2-(2-{3-[3-(1-methyl-1H-pyrazol-4-yl)-6-oxo-6H-pyridazin-1-ylmethyl]phenyl}pyrimidin-5-yloxy)acetamide]	–
–	149 to 150 °C	N#Cc1cccc(-c2ccc(=O)n(Cc3cccc(-c4ncc(OCCN5CCNCC5)cn4)c3)n2)c1 [Compound C5, 3-(6-oxo-1-{3-[5-(2-piperazin-1-ylethoxy)pyrimidin-2-yl]benzyl}-1,6-dihydro-pyridazin-3-yl)benzonitrile]	–
–	200 to 201 °C	CC(C)Oc1cnc(-c2cccc(Cn3nc(-c4cccc(C#N)c4)ccc3=O)c2)nc1 [Compound D2, 3-{1-[3-(5-Isopropoxypyrimidin-2-yl)benzyl]-6-oxo-1,6-dihydropyridazin-3-yl}benzonitrile]	–
–	229 to 230 °C	COc1cnc(-c2cccc(Cn3nc(-c4cccc(C#N)c4)ccc3=O)c2)nc1 [Compound D3, 3-{1-[3-(5-Methoxypyrimidin-2-yl)benzyl]-6-oxo-1,6-dihydropyridazin-3-yl}-benzonitrile]	–

More lines, now with the values behind:

Compound	IC50 (Met kinase)	melting point	antitumoural action (TPR-Met/NIH3T3 cells)
Cn1cc(-c2ccc(=O)n(Cc3cccc(-c4ncc(OC[C@H]5C[C@@H]5CN)cn4)c3)n2)cn1 [Compound A18, 2-{3-[5-((1S,2S)-2-Aminomethylcyclopropylmethoxy)pyrimidin-2-yl]benzyl}-6-(1-methyl-1H-pyrazol-4-yl)-2H-pyridazin-3-one]	0.01 to 1 µM	–	significant antitumoural action
Cn1cc(-c2ccc(=O)n(Cc3cccc(-c4ncc(OC5CCC(O)C5)cn4)c3)n2)cn1 (centres unmarked) [Compound A22, 2-{3-[5-(3-hydroxycyclopentyloxy)pyrimidin-2-yl]benzyl}-6-(1-methyl-1H-pyrazol-4-yl)-2H-pyridazin-3-one]	–	–	significant antitumoural action
CC(C)(C)OC(=O)N1CCC(COc2cnc(-c3cccc(Cn4nc(-c5cccc(C(N)=O)c5)ccc4=O)c3)nc2)CC1 [Compound C18, tert-butyl 4-(2-{3-[3-(3-carbamoylphenyl)-6-oxo-6H-pyridazin-1-ylmethyl]-phenyl}pyrimidin-5-yloxymethyl)piperidine-1-carboxylate]	–	197 to 198 °C	–
